For series [1], the system named is HDFs (human dermal fibroblasts). The conditions noted are these: MTT assay, published earlier, ref [41], read-out: IC50 [μM] (±s) HDFs; cited from earlier work.
Series [2] deals with SKOV-3 (human ovarian carcinoma). The conditions noted are these: MTT assay, SKOV-3 cells; published earlier; ref [41]; read-out: IC50 [μM] (±s) SKOV-3; cited from earlier work.
Series [3] relates to CHO (Chinese hamster ovary). The series can be described thus: MTT assay, CHO cells. Type of series: cell-based. The conditions noted are these: Cricetulus griseus, CHO, MTT assay, CHO cells, value (standard deviation); read-out: IC50 [μM] (±s) CHO. On the procedure:
(§1) Each medium was supplemented with 10% fetal bovine serum, 1% L-glutamine, and 1% penicillin/streptomycin solution. The cell lines were incubated at 37 °C in a humidified atmosphere containing 5% CO2. Cells were counted using the Fuchs–Rosenthal counting chamber (hemocytometer) with modifications.
(§2) The final product of this reaction gives violet formazan crystals. The number of live cells is proportional to the amount of formazan and is represented by the violet dye reagent. The details of the experiments are given, e.g., in [54].
(§3) Statistical analyses for the cytotoxic activity were carried out using the nonparametric Kruskal–Wallis H test for unpaired data and ANOVA Friedman two-way analysis of variance test for paired data. Statistical significance was tested using Dunn’s post-hoc test. The IC50 values compared to the control IC50 were calculated using GraphPad Prism v. 10.1.1. software.
(In general: Tetrazolium assays rely on reduction of a dye to a coloured formazan, in cell work by metabolically active cells.)

In series [4] the test system is PC-3 (human prostate carcinoma). The series is described as follows: MTT assay, PC-3 cells. Type of series: cell-based. The settings on record: for IC50: Homo sapiens, PC-3, MTT assay, PC-3 cells, value (standard deviation), read-out: IC50 [μM] (±s) PC-3. On the procedure: as §1, §2, §3
In series [5] the test system is A-549 (human lung carcinoma). The series can be described thus: MTT assay, A-549 cells. The conditions noted are these: for IC50: Homo sapiens, A549, MTT assay, A-549 cells, value (standard deviation), read-out: IC50 [μM] (±s) A-549. Type of series: cell-based. On the procedure: as §1, §2, §3
A further series can be described thus: Solubility (remark). The class given is physicochemical. The conditions noted are these: remark among limitations, solvent not stated.
The subject of series [6] is HDFs (human dermal fibroblasts). The series is described as follows: MTT assay, HDFs (normal cells). The class given is cell-based. The settings on record: Fibroblast, value (standard deviation), read-out: IC50 [μM] (±s) HDFs. On the procedure: as §1, §2, §3
A further series relates to A-549, PC-3, and SKOV-3. The series is described as follows: MTT assay, statements over the cancer cell lines together. The class given is cell-based, human. The settings on record: Homo sapiens, MTT assay; A-549, PC-3 and SKOV-3 together, summary of Table 3; read-out: IC50 stated over the cancer cell lines together. How it is done: as §1, §2
Series [7] concerns SKOV-3 (human ovarian carcinoma). The series is described as follows: MTT assay, SKOV-3 cells. The conditions noted are these: for IC50: Homo sapiens, SK-OV-3, MTT assay, SKOV-3 cells, value (standard deviation), read-out: IC50 [μM] (±s) SKOV-3. Type of series: cell-based. On the procedure: as §1, §2, §3

Where two headings read alike, the source gives them in different places.

As usually defined, the IC50 is the concentration needed to halve the response being measured. Take `CC1(C)CC[C@]2(C(=O)O)CC[C@]3(C)C(=CC[C@@H]4[C@@]5(C)CC[C@H](O)C(C)(C)[C@@H]5CC[C@]43C)[C@@H]2C1` [Compound 1, oleanolic acid]: the values for the half-inhibitory concentration (IC50) in [1], in series [2] and in series [3] were 24.9 µM, 18.8 µM and 9.16 µM, respectively.
Turning to `CC1(C)CC[C@@]23CC[C@@]4(C)[C@]5(C)CCC6C(C)(C)[C@@H](O)CC[C@]6(C)C5C/C(=N\O)[C@]4(OC2=O)C3C1` (stereo partly drawn) [Compound 8, 3β-Hydroxy-12-hydroxyiminoolean-28-oic acid 28β→13β-olide], the half-maximal inhibitory concentration (IC50) in series [4] was above 100 µM; in series [5], above 100 µM; in series [6] it was above 100 µM; in [3], above 100 µM; in the series on A-549, PC-3, and SKOV-3, above 100 µM; in [7], above 100 µM. The solubility entry in “Solubility (remark)” is recorded as “poor solubility”.
As for `CC1(C)CC[C@@]23CC[C@]4(C)[C@@](OC2=O)(C3C1)[C@@H](Br)CC1[C@@]2(C)CCC(=O)NC(C)(C)C2CC[C@]14C` (stereo partly drawn) [Compound 13, 12α-bromo-3-oxo-3a-aza-A-homoolean-28-oic acid 28β→13β-olide], the IC50 in series [4] is 73.1 µM; in series [5] it was 89.3 µM; in [6], 89.4 µM; in [3], above 100 µM; with A-549, PC-3, and SKOV-3, 11 to 90 µM; in [7], 75.8 µM. In [4] (IC50 of HDFs / IC50 of PC-3), the “Selectivity Index (SI) PC-3” value turned out to be 1.22. Also, in [5] (IC50 of HDFs / IC50 of A-549), the “Selectivity Index (SI) A-549” value is reported as 1.00. Moreover, the solubility result in the series “Solubility (remark)” is on record as “poor solubility”. Also, in series [7] (IC50 of HDFs / IC50 of SKOV-3), the “Selectivity Index (SI) SKOV-3” value stood at 1.18.
